Experimental data as given in patent US20250057909A1, “NOVEL USE OF ALANYL-GLUTAMINE AND OPHTHALMIC COMPOSITION COMPRISING ALANYL-GLUTAMINE” (SEINDA PHARMACEUTICAL GUANGZHOU CORPORATION, priority 2021, published 2025).
Marks after values point to notes of the source that are not given here.

Legend:
guinea pig skin = experiment: Skin allergy test
corneal cells = experiment: Vitro model of corneal ulcer: growth of corneal cells in culture in vitro; format: cell-based, ICR mice; conditions: cornea of immunised mice co-cultured with autologous leukocytes
Method: The rabbit corneas were taken and cut into pieces, 5-10 times volume of 5% triton solution was added and homogenized until there were no lumpy particles, then centrifuged at 3000 r/min for 10 min, and the supernatant was taken. 5 ml of the supernatant was taken and mixed with 5 ml of complete Freund's adjuvant to prepare a mixed solution for later use.
SPF grade ICR mice were divided into normal group, immune group, and cyclophosphamide group, 10 mice/group. The normal group received subcutaneous injection of 0.5 ml of physiological saline per mouse; Each mouse in the immune group and cyclophosphamide group was subcutaneously injected with the mixed solution+physiological saline, the mixed solution+cyclophosphamide 300 mg/kg respectively, and the injection sites were not overlapped; Injection was performed once every other day for a total of 10 times. 3 days after the last injection, the mice were euthanized using the bloodletting method, and the eyeballs were removed and cut into pieces under sterile conditions. At the same time, the cornea and the leukocytes separated from autologous blood were co-cultured in a 24-well culture plate.

[1] = 1 h after challenge and drug removal
[2] = 24 h after challenge and drug removal
[3] = 48 h after challenge and drug removal

SMILES	Average score (guinea pig skin; [1])	Number of allergic animals (guinea pig skin; [1])	Total score (guinea pig skin; [1])	Average score (guinea pig skin; [2])	Number of allergic animals (guinea pig skin; [2])	Total score (guinea pig skin; [2])	Average score (guinea pig skin; [3])	Number of allergic animals (guinea pig skin; [3])	Total score (guinea pig skin; [3])	Growth of corneal cells in culture in vitro, Number (corneal cells; Grow time 72 h)	Growth of corneal cells in culture in vitro, Percentage % (growth rate) (corneal cells; Grow time 72 h)	Growth of corneal cells in culture in vitro, Number (corneal cells; Grow time 120 h)	Growth of corneal cells in culture in vitro, Percentage % (growth rate) (corneal cells; Grow time 120 h)
O=[N+]([O-])c1ccc(Cl)c([N+](=O)[O-])c1 [2,4-dinitrochlorobenzene]	2.2	10	22	1.7	10	17	1.0	10	10	–	–	–	–
O=P1(N(CCCl)CCCl)NCCCO1 (stereo not shown) [cyclophosphamide]	–	–	–	–	–	–	–	–	–	8	16.0** %	11	22.0** %
